According to PubChem BioAssay AID179 (DTP/NCI, 2004):
pEC50, pIC50: −log10 of the molar value. “And” between values parts separate entries of the source, which are not always exact repeats. Equal entries are not always repeated. The source made the active and inactive calls.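 Rule for the calls: active = compounds giving half or more protection of infected cells from virus-caused growth loss, again on retest; inactive = the rest.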

Test system: CEM cells HIV-1 protection, formazan growth assay
Assay: NCI AIDS Antiviral Assay
Details: for pIC50: measured here: growth of uninfected CEM cells
In short: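 Steps: treat uninfected and HIV-1-infected human CEM cells at five drug levels; quantify growth by soluble formazan; retest any compound reaching 50% protection; classify actives from the retest.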

CC1=NN(c2ccccc2)C(=O)C1N=Nc1ccc(S(=O)(=O)Nc2cc(C)nc(C)n2)cc1 (stereo not drawn)
outcome: inactive

Cc1ccc(C)c(N2C(=O)C(=O)C(c3nc4ccccc4s3)C(=Nc3cccc4c(=O)[nH][nH]c(=O)c34)C2=O)c1 (stereo not drawn)
outcome: inactive

CC(=O)c1c(O)cc(O)cc1-c1cc(=O)c2c(O)ccc(C(C)=O)c2o1
pEC50: < 3.70 | pIC50: 3.77

Nc1ncnc2oc(-c3ccccc3)nc12
pEC50: < 3.71 | pIC50: < 3.71

O=C(O)CN1CCN2CCCCCN(CC1)CCN(CC(=O)O)CC2
pEC50: < 3.70 | pIC50: 4.90

Cn1c2ccccc2c2nnc(SCCN3CCOCC3)nc21
pEC50: < 3.70 | pIC50: < 3.70

OCC(O)C(O)C(O)c1nn[nH]n1 (stereo not drawn)
outcome: inactive

CCC1OC2C(CC=C(C)C)=C3OC(C)(O)C(C)(CC)C(OC(=O)c4ccccc4)C3=C3OC(=O)C=C1C32 (stereo not drawn)
pEC50: < 3.70 | pIC50: 4.73

CCCCc1c2c(nc3c1CCc1cc4cc5c(nc4nc1-3)-c1nc3c(c(CCCC)c1CC5)CCC/C3=N/OC)/C(=N\OC)CCC2
pEC50: < 4.00 | pIC50: 6.46

CCOC(=O)C(=C=C=C(c1ccccc1)c1ccccc1)C(=O)OCC
outcome: inactive

Cn1cnc([N+](=O)[O-])c1Sc1nc2ccc([N+](=O)[O-])cc2[nH]1
pEC50: < 4.09 | pIC50: 5.11

CSc1nc2c(c(=O)n1C)N=C(c1ccc(Cl)cc1)CC(c1ccccc1)N2 (stereo not drawn)
pEC50: < 3.70 | pIC50: 4.74

NC(=S)N/N=C(\CC1OC(=O)c2ccccc21)c1ccc(Cl)cc1 (stereo not drawn)
pEC50: < 4.08 | pIC50: 5.14

CC12CCCC1C1CC=C3CC(SC4CCC5(C)C(=CCC6C7CCCC7(C)CCC65)C4)CCC3(C)C1CC2 (stereo not drawn)
pEC50: < 3.70 | pIC50: < 3.70

CC(=O)OC1CCC2C3CCC4(C)C(=O)CCC4C3C3OC23C1 (stereo not drawn)
pEC50: < 3.55 | pIC50: 3.68

COc1ccc2nc(CC(=N)c3ccc(N(C)C)cc3)ccc2c1
pEC50: < 3.70 | pIC50: 4.63

CC1OC(OC2C(O)COC(OC3C(C)OC(OC4C(OC(=O)[C@]56CCC(C)(C)C[C@@H]5C5=CCC7[C@@]8(C)C[C@H](O)[C@H](OC9OC(CO)C(O)C(OC%10OC(CO)C(O)C(O)C%10O)C9O)[C@@](C)(CO)[C@@H]8CC[C@@]7(C)[C@]5(C)CC6)OCC(O)C4O)C(O)C3OC3OCC(O)(CO)C3O)C2O)C(O)C(O)C1O (stereo partly drawn)
pEC50: < 4.72 | pIC50: 4.91

O=C(O)CCC(O)=C1S(=O)(=O)OCCOS1(=O)=O
pEC50: < 2.35 | pIC50: 3.48

COC(=O)C1=C(C(=O)OC)SC(=CC#CC=C2SC(C(=O)OC)=C(C(=O)OC)S2)S1
pEC50: < 5.25 | pIC50: < 5.25

CC(=C/c1ccccc1)/C=C1/SC(=S)N(C=C2C(=O)NC(=O)NC2=O)C1=O
pEC50: < 3.70 | pIC50: 4.22

Cc1ccnc(NC(=O)Nc2ccc(C)cc2[N+](=O)[O-])c1
pEC50: < 3.70 | pIC50: < 3.70

Cn1c(=O)c2nc(N3CCCCC3)cnc2n(C)c1=O
pEC50: < 3.70 | pIC50: < 3.70

CN(O)C(=S)c1ccccc1
pEC50: < 4.83 | pIC50: 6.95

COc1cc(Nc2cnc3cc(F)c(F)cc3n2)cc(OC)c1
pEC50: < 3.70 | pIC50: < 3.70

OC1[C@@H]2[C@@H](O)CCCN2C[C@@H](O)[C@H]1O (stereo partly drawn)
pEC50: < 3.70 | pIC50: < 3.70

CCC1c2c(cc(=O)[nH]c2O)C(=O)N1C (stereo not drawn)
pEC50: < 3.35 | pIC50: < 3.35

O=c1ccn([C@H]2CSC[C@@H](CO)C2)c(=O)[nH]1
pEC50: < 2.99 | pIC50: < 2.99

CN1CNc2nc(N)n(C)c(=O)c2C1
pEC50: < 3.70 | pIC50: < 3.70

COC(=O)c1cc(C)ccc1/C=C1\Cc2cccc(C)c2C1=O
pEC50: < 3.70

CC1=NN(C(=O)Cc2ccccc2)C(=O)/C1=C\c1cccc(O)c1
pEC50: < 4.65 | pIC50: < 4.65

CCC(=O)CCCC=C(c1cc(Cl)c(OC)c(C(=O)OC)c1)c1cc(Cl)c(OC)c(C(=O)OC)c1
pEC50: 5.84 | pIC50: 4.39

O=C1c2c(/C=C/c3ccc(Cl)c(Cl)c3)nc3ccccc3c2C(=O)N1CCN1CCCCC1
pEC50: < 5.12 | pIC50: < 5.12

O=C1C2=C(CC3C(C2)C3(Br)Br)C(=O)C2=C1CC1C(C2)C1(Br)Br (stereo not drawn)
pEC50: < 5.03 | pIC50: < 5.03

Nc1ncnc2c1ncn2C(Cl)=C(Cl)Cl
pEC50: < 3.70 | pIC50: 3.94

CC1=CC2C(O)(CC(CO)=CC3C4C(C)(C)C4(O)C(O)C(C)C32O)C1=O (stereo not drawn)
outcome: inactive

CCOC(=O)C1N(S(=O)(=O)c2ccc(C)cc2)CCC12C(c1ccc(OC)c(OC)c1)=Nc1ccccc12 (stereo not drawn)
outcome: inactive

CC(=O)OC(C)(C)/C=C/C(=O)[C@](C)(O)[C@H]1[C@H](O)C[C@@]2(C)[C@@H]3CC=C4[C@@H](C[C@H](O)[C@H](O)C4(C)C)[C@]3(C)C(=O)C[C@]12C
pEC50: < 6.70 | pIC50: 7.04

CN(C)/C(N)=N/C(N)=S
outcome: inactive

CCCCSc1ccc2n(C)c(-c3ccc(/C=N\NC(=O)c4ccc(C(=O)N/N=C\c5ccc(-c6c[n+]7cc(SCCCC)ccc7n6C)cc5)cc4)cc3)c[n+]2c1
pEC50: 5.49 | pIC50: 5.20

NC(=O)Cn1c(=O)[nH]c(=O)c2[nH]cnc21
pEC50: < 3.76 | pIC50: < 3.76

O=C1C=C(N2CCOCC2)c2cnccc2C1=O
outcome: inactive

Cc1ccc(S(=O)(=O)/C(C#N)=C/NC(=S)Nc2ccccc2)cc1
pEC50: 3.77 | pIC50: < 3.70

O=C1[C@H]2ON(c3ccccc3)C(c3ccccc3Cl)[C@H]2C(=O)N1c1ccc(Cc2ccc(N3C(=O)[C@@H]4ON(c5ccccc5)C(c5ccccc5Cl)[C@@H]4C3=O)cc2)cc1 (stereo partly drawn)
pEC50: < 5.06 | pIC50: < 5.06

Nc1cnc(N2CCN(c3ncc(N)cc3N)CC2)c(N)c1
pEC50: < 4.02 | pIC50: 4.11

NC12CCC(CC1=O)C2 (stereo not drawn)
pEC50: < 3.70 | pIC50: < 3.70

Cn1c2ccc3cc2c(=S)c2cc(ccc21)OCCOCCOCCOCCOCCO3
pEC50: < 3.70 | pIC50: 4.21

O=c1c2cc(-c3ccccc3)cnc2sn1-c1ccc(Oc2ccccc2)cc1
pEC50: 4.16 | pIC50: 3.96

Cc1sc2c(c1C)/C(=N\O)c1cccn1-2
pEC50: < 3.70 | pIC50: 4.38

CC(C)(Br)C(=O)N1CCN(C(c2ccccc2)c2ccccc2)CC1
pEC50: < 4.60

Cc1ccc(NC(=O)CCc2nnc3s/c(=C\c4cccc([N+](=O)[O-])c4)c(=O)n23)cc1
pEC50: < 5.76 | pIC50: < 5.76

O=C(O)CCC1NC(/C(=C/c2ccccc2O)NC(=O)c2ccccc2)OC1=O (stereo not drawn)
pEC50: < 3.82 | pIC50: < 3.82

CC1=C(c2ccccc2)CON(c2ccccc2)C1
pEC50: < 4.27 | pIC50: < 4.27

CCN1C(=NCCO)NS(=O)(=O)c2ccccc21
pEC50: < 3.70 | pIC50: < 3.70

Cc1c(C(=O)CC(=O)C(=O)Nc2ccccc2C(F)(F)F)[n+](=O)c2ccccc2n1[O-]
pEC50: < 5.34 | pIC50: < 5.34

CCCCN(CCCC)C1CCC(Nc2ccnc3cc(Cl)ccc23)CC1 (stereo not drawn)
pEC50: < 3.70 | pIC50: 4.59

CC(C)CCCC(C)C1CCC2[C@@H]3CCC4C[C@@H](CC=C(c5cc(Cl)c(O)c(C(=O)O)c5)c5cc(Cl)c(O)c(C(=O)O)c5)CC[C@]4(C)C3CC[C@]12C (stereo partly drawn)
pEC50: 4.67 | pIC50: 3.50

CCN(CC)/C(SCc1ccccc1)=C(\C(Cl)=C(Cl)Cl)[N+](=O)[O-]
pEC50: < 3.70 | pIC50: 4.46

Oc1ccccc1-c1nnc2sc3c(Cl)c4nn5c(-c6ccccc6O)nnc5sc4c(Cl)c3nn12
pEC50: < 3.70 | pIC50: 4.44

CC(O)CCC(=O)c1ccoc1 (stereo not drawn)
pEC50: < 2.83 | pIC50: < 2.83

C[N+](C)(C)CCC#CC[N+]1(C)CCCC1
outcome: inactive

C#CC1(O)CCC2[C@@H]3CCc4cc(Oc5nc(F)nc(-c6c7ccccc7cn6C)n5)ccc4C3CC[C@@]21C (stereo partly drawn)
pEC50: < 5.00 | pIC50: < 5.00

COc1cc(/C=C2\CC(C)C/C(=C\c3ccc(O)c(OC)c3)C2=O)ccc1O (stereo not drawn)
pEC50: < 3.70 | pIC50: 5.47

O=C1CCC2SC1CCC2=O
pEC50: < 3.70 | pIC50: < 3.70

C=C(C)C1CCC(C(=O)O)CC1 (stereo not drawn)
pEC50: < 3.70 | pIC50: < 3.70

CC(=O)c1cccc(NC(=O)Nc2cccc(C)n2)c1
pEC50: < 4.25 | pIC50: 5.16

Cc1cccnc1NC(=S)Nc1ccccc1Cl
pEC50: < 3.70 | pIC50: 6.09

COc1ccc(NC(=O)Oc2ccc3c(C)cc(=O)oc3c2)c(OC)c1 (tested in a mixture with another compound)
pEC50: < 4.00 | pIC50: 4.33

CCCC[C@@H]1CCN2C[C@@H](O)[C@@H](O)[C@H]2[C@@H]1O
pEC50: < 3.70 | pIC50: < 3.70

Cc1ccc(NC(=O)/C(Cc2cc(=O)oc3cc(O)ccc23)=N\NC(C)(C)C)cc1C
pEC50: < 4.77 | pIC50: < 4.77

O=C(O)c1cc(N=C=S)ccc1-c1c2ccc(=O)cc-2oc2cc(O)ccc12
pEC50: 4.36 and 4.35 | pIC50: 3.50 and < 4.00

Cc1nn[n-]n1.N.N.N.N.N.[Cl-].[Co+3]
pEC50: < 3.08 | pIC50: < 3.08

N#CCC(=O)N1CCCOCCC1
pEC50: < 2.86 | pIC50: < 2.86

CC(O)C(NC(=O)C1CSSCC(NC(=O)C(Cc2ccccc2)NC(=O)OCC2c3ccccc3-c3ccccc32)C(=O)NC(Cc2ccccc2)C(=O)NC(Cc2cn(C=O)c3ccccc23)C(=O)NC(CCCCNC(=O)OCC2c3ccccc3-c3ccccc32)C(=O)NC(C(C)O)C(=O)N1)C(N)=O (stereo not drawn)
pEC50: < 4.30 | pIC50: 5.19

CC(CNC(=O)c1ccccc1)(CNC(=O)c1ccccc1)[N+](=O)[O-]
outcome: inactive

N#C/C(=C\c1c(Cl)cccc1Cl)c1ccccc1
pEC50: < 4.30 | pIC50: 4.54

CC1Oc2c(c(=O)oc3ccccc23)[C@@]1(C)CC1C[C@H](C)C(=O)O1 (stereo partly drawn)
pEC50: < 3.70 | pIC50: 4.61

Cc1nc2ccccc2c(=O)n1NC(=S)Nc1cccc(Cl)c1
pEC50: < 4.68 | pIC50: < 4.68

COc1ccc2c(c1)CCC1C=NOC21 (stereo not drawn)
pEC50: < 3.61 | pIC50: 3.97

O=C1CSC(=S)N1c1ccc(Cl)cc1
pEC50: < 3.83 | pIC50: 4.25

CC1(Br)Cc2ccccc2C1=O (stereo not drawn)
outcome: inactive

CC(=O)OC1COC(n2c(-c3ccc(Cl)cc3)cc(-c3ccccc3)c(C#N)c2=S)C(OC(C)=O)C1OC(C)=O (stereo not drawn)
pEC50: < 3.70 | pIC50: < 3.70

O=[P+](O)c1ccccn1
outcome: inactive

Cc1ccc(S(=O)(=O)S/C(=N\c2ccccn2)Nc2ccccn2)cc1
pEC50: < 3.49 | pIC50: 4.08

CCOC(=O)NP(=O)(NNc1ccccc1)NNc1ccccc1
outcome: inactive
